Columns and labels:
Format in all cases: cell-based
[1] = test system: Colo205 (human colon cancer cells); test: MTT in vitro anti-tumor activity test, Colo205; settings: MTT, 72 h; for Colo205 IC50: Colo205 human colon cancer cells
[2] = test system: MDA-MB-435 (human breast cancer cells); test: MTT in vitro anti-tumor activity test, MDA-MB-435; settings: MTT, 72 h; for MDA-MB-435 IC50: MDA-MB-435 human breast cancer cells
[3] = test system: A549 (human lung cancer cells); test: MTT in vitro anti-tumor activity test, A549; settings: MTT, 72 h; for A549 IC50: A549 human lung cancer cells
[4] = test system: HepG2 (human hepatoma cells); test: MTT in vitro anti-tumor activity test, HepG2; settings: MTT, 72 h; for HepG2 IC50: HepG2 human hepatoma cells

| SMILES | Colo205 100 μg/mL IC % [1] | Colo205 IC50 [1] | MDA-MB-435 100 μg/mL IC % [2] | MDA-MB-435 IC50 [2] | A549 100 μg/mL IC % [3] | A549 IC50 [3] | HepG2 100 μg/mL IC % [4] | HepG2 IC50 [4] |
| --- | --- | --- | --- | --- | --- | --- | --- | --- |
| CCN(CC)CCOc1nc2ccccc2c2c1-c1ccc(OC)cc1C2=O [Compound 2] | 100% | 0.427 µg/mL | 100% | 1.99 µg/mL | 100% | 1.53 µg/mL | 100% | 2.50 µg/mL |
| COc1ccc2c(c1)C(=O)c1c-2c(OCCN2CCCC2)nc2ccccc12 [Compound 3] | 92.33% | 10.97 µg/mL | 100% | 26.55 µg/mL | 99.90% | 14.39 µg/mL | 80.79% | 24.99 µg/mL |
| COc1ccc2c(c1)C(=O)c1c-2c(OCCn2ccnc2)nc2ccccc12 [Compound 4] | 60.32% | 13.51 µg/mL | 48.21% | >100 µg/mL | 78.34% | 16.61 µg/mL | 34.87% | >100 µg/mL |
| COc1ccc2c(c1)C(=O)c1c-2c(OCCN2CCOCC2)nc2ccccc12 [Compound 5] | 43.88% | >100 µg/mL | 19.75% | >100 µg/mL | 48.72% | >100 µg/mL | 13.97% | >100 µg/mL |
| CN(C)CCOc1nc2ccccc2c2c1-c1ccc(Cl)cc1C2=O [Compound 7] | 100% | 6.46 µg/mL | 100% | 4.91 µg/mL | 90.29% | 15.12 µg/mL | 100% | 22.95 µg/mL |
| CCN(CC)CCOc1nc2ccccc2c2c1-c1ccc(Cl)cc1C2=O [Compound 8] | 99.01% | 15.16 µg/mL | 100% | 31.62 µg/mL | 84.24% | 28.56 µg/mL | 73.57% | 28.84 µg/mL |
| O=C1c2cc(Cl)ccc2-c2c(OCCN3CCCC3)nc3ccccc3c21 [Compound 9] | 71.11% | 7.10 µg/mL | 100% | 12.28 µg/mL | 100% | 5.78 µg/mL | 82.92% | 15.99 µg/mL |
| O=C1c2cc(Cl)ccc2-c2c(OCCn3ccnc3)nc3ccccc3c21 [Compound 10] | 80.16% | 31.06 µg/mL | 99.70% | 15.02 µg/mL | 97.57% | 14.48 µg/mL | 92.06% | 34.93 µg/mL |
| O=C1c2cc(Cl)ccc2-c2c(OCCN3CCCCC3)nc3ccccc3c21 [Compound 11] | 69.24% | 39.33 µg/mL | 69.43% | 44.76 µg/mL | 69.84% | 32.73 µg/mL | 63.27% | 55.62 µg/mL |
| CN(C)CCCOc1nc2ccccc2c2c1-c1ccc(Cl)cc1C2=O [Compound 12] | 100% | 1.16 µg/mL | 100% | 0.585 µg/mL | 88.18% | 3.04 µg/mL | 100% | 3.19 µg/mL |
| COc1ccc2c(c1)C(=O)c1c-2c(OCCN(C)C)nc2ccc(OC)cc12 [Compound 13] | 96.52% | 1.79 µg/mL | 100% | 4.34 µg/mL | 100% | 17.27 µg/mL | 100% | 2.47 µg/mL |
| COc1ccc2c(c1)C(=O)c1c-2c(OCCN2CCCCC2)nc2ccc(OC)cc12 [Compound 15] | 100% | 3.13 µg/mL | 99.08% | 6.88 µg/mL | 100% | 6.95 µg/mL | 100% | 5.02 µg/mL |
| COc1ccc2c(c1)C(=O)c1c-2c(OCCCN(C)C)nc2ccc(OC)cc12 [Compound 16] | 100% | 3.49 µg/mL | 100% | 4.09 µg/mL | 100% | 2.91 µg/mL | 100% | 3.48 µg/mL |
| COc1ccc2c(c1)-c1c(OCCN(C)C)nc3ccc(OC)cc3c1C2=O [Compound 17] | 100% | 6.70 µg/mL | 100% | 4.98 µg/mL | 85.30% | 18.26 µg/mL | 100% | 10.31 µg/mL |
| COc1ccc2nc(OCCN3CCCC3)c3c(c2c1)C(=O)c1cc(Br)ccc1-3 [Compound 18] | 43.88% | >100 µg/mL | 67.72% | 24.86 µg/mL | 35.69% | >100 µg/mL | 35.48% | >100 µg/mL |
| COc1ccc2nc(OCCn3ccnc3)c3c(c2c1)C(=O)c1cc(Br)ccc1-3 [Compound 19] | 80.89% | 18.70 µg/mL | 59.37% | 42.24 µg/mL | 17.66% | >100 µg/mL | 37.50% | >100 µg/mL |
| CCN(CC)CCOc1nc2cc(OC)c(OC)cc2c2c1-c1ccc(OC)cc1C2=O [Compound 21] | 88.97% | 2.56 µg/mL | 93.41% | 1.17 µg/mL | 100% | 1.68 µg/mL | 93.16% | 0.700 µg/mL |
| COc1ccc2c(c1)C(=O)c1c-2c(OCCN2CCCC2)nc2cc(OC)c(OC)cc12 [Compound 22] | 93.84% | 1.30 µg/mL | 100% | 1.85 µg/mL | 97.05% | 1.43 µg/mL | 81.69% | 8.61 µg/mL |
| COc1ccc2c(c1)C(=O)c1c-2c(OCCN2CCCCC2)nc2cc(OC)c(OC)cc12 [Compound 24] | 98.38% | 5.15 µg/mL | 90.85% | 8.92 µg/mL | 93.92% | 10.32 µg/mL | 98.55% | 10.78 µg/mL |

From US9181193B2, “Indenoquinolone compound, preparation method and use thereof” (Second Military Medical University, PLA, priority 2010, dated 2015)
